Experimental data from patent publication US6875784B2, “Antimibicrobial [3.1.0.] bicyclic oxazolidinone derivatives” (priority 2002, dated 2005).
Converted amounts (≈) assume the structure as drawn. Where two headings read alike, the source gives them in different places.

How the values were obtained:
Format in all cases: cell-based
H. influenzae 30063 = experiment: MIC by agar dilution, H. influenzae 30063
From the text: (§1) The in vitro activity of compounds of the subject invention may be assessed by standard testing procedures such as the determination of minimum inhibitory concentration (MIC) by agar dilution as described in “Approved Standard. Methods for Dilution Antimicrobial Susceptibility Tests for Bacteria that Grow Aerobically,” 3rd ed., published 1993 by the National Committee for Clinical Laboratory standards, Villanova, Pa., USA.
(§2) The in vitro MICs of test compounds may be determined by a standard agar dilution method. A stock drug solution of each analog is prepared in a preferred solvent, usually DMSO:H2O (1:3). Serial 2-fold dilutions of each sample are made using 1.0 ml aliquots of sterile distilled water. To each 1.0 ml aliquot of drug is added 9 ml of molten Mueller Hinton agar medium. The drug-supplemented agar is mixed, poured into 15×100 mm petri dishes, and allowed to solidify and dry prior to inoculation.
(§3) Vials of each of the test organisms are maintained frozen in the vapor phase of a liquid nitrogen freezer. Test cultures are grown overnight at 35° C. on the medium appropriate for the organism. Colonies are harvested with a sterile swab, and cell suspensions are prepared in Trypticase Soy broth (TSB) to equal the turbidity of a 0.5 McFarland standard. A 1:20 dilution of each suspension is made in TSB. The plates containing the drug supplemented agar are inoculated with a 0.001 ml drop of the cell suspension using a Steers replicator, yielding approximately 10^4 to 10^5 cells per spot. The plates are incubated overnight at 35° C.
(§4) Following incubation the Minimum Inhibitory Concentration (MIC μg/ml), the lowest concentration of drug that inhibits visible growth of the organism, is read and recorded.
(§5) The in vitro MICs of test compounds were determined by a standard agar dilution method. A stock drug solution of each analog was prepared in the preferred solvent, usually DMSO:H2O (1:3). Serial 2-fold dilutions of each sample are made using 1.0 ml aliquots of sterile distilled water. To each 1.0 ml aliquot of drug was added 9 ml of molten Mueller Hinton agar medium The drug-supplemented agar was mixed, poured into 15×100 mm petri dishes, and allowed to soldify and dry prior to inoculation.
(§6) Vials of each of the test organisms are maintained frozen in the vapor phase of a liquid nitrogen freezer. Test cultures are grown overnight at 35° C. on the medium appropriate for the organism. Colonies are harvested with a sterile swab, and cell suspensions are prepared in Trypticase Soy broth (TSB) to equal the turbidity of a 0.5 McFarland standard. A 1:20 dilution of each suspension was made in TSB. The plates containing the drug supplemented agar are inoculated with a 0.001 ml drop of the cell suspension using a Steers replicator, yielding approximately 10^4 to 10^5 cells per spot. The plates are incubated overnight at 35° C. Following incubation the Minimum Inhibitory Concentration (MIC μg/ml), the lowest concentration of drug that inhibits visible growth of the organism, was read and recorded.

S. aureus UC9213 = experiment: MIC by agar dilution, S. aureus UC9213; conditions: Staphylococcus aureus
From the text: as §1, §2, §3, §4, §5, §6

S. pneumoniae UC9912 = experiment: MIC by agar dilution, S. pneumoniae UC9912; conditions: Streptococcus pneumoniae
From the text: as §1, §2, §3, §4, §5, §6

[1] = Haemophilus influenzae, 30063, read-out: MIC against H. influenza (30063)
[2] = UC9213, agar dilution, Mueller Hinton agar, overnight at 35° C., read-out: S. aureus UC9213 MIC
[3] = UC9912, agar dilution, Mueller Hinton agar, overnight at 35° C., read-out: S. pneumoniae UC9912 MIC
[4] = Haemophilus influenzae, 30063, agar dilution, Mueller Hinton agar, overnight at 35° C., read-out: H. influenzae 30063 MIC

| SMILES | MIC (H. influenzae 30063; [1]) | MIC (S. aureus UC9213; [2]) | MIC (S. pneumoniae UC9912; [3]) | MIC (H. influenzae 30063; [4]) | also measured |
| --- | --- | --- | --- | --- | --- |
| COC(=O)[C@H]1[C@@H]2CN(c3c(F)cc(N4C[C@H](CNC(=O)C(F)F)OC4=O)cc3F)C[C@@H]21 [Example 16, methyl exo-(1R,5S)-3-[4-((5S)-5-{[(difluoroacetyl)amino]methyl}-2-oxo-1,3-oxazolidin-3-yl)-2,6-difluorophenyl]-3-azabicyclo[3.1.0]hexane-6-carboxylate] | > 64 µg/mL |  |  |  |  |
| CCN(CC)C(=O)COC(=O)[C@H]1[C@@H]2CN(c3c(F)cc(N4C[C@H](CNC(=O)C(F)F)OC4=O)cc3F)C[C@@H]21 [Example 17] | > 64 µg/mL |  |  |  |  |
| CC(=O)NC[C@H]1CN(c2ccc(N3CC4NC4C3)c(F)c2)C(=O)O1 (stereo partly shown) [Example 49] |  |  |  |  | MIC (S. aureus UC9213; UC9213, read-out: S. aureus UC9213 MIC, μg/mL): 4 µg/mL (≈ 12 µM); MIC (S. pneumoniae UC9912; UC9912, read-out: S. pneumoniae UC9912 MIC, μg/mL): 0.5 µg/mL (≈ 1.5 µM); MIC (H. influenzae 30063; Haemophilus influenzae, 30063, read-out: H. influenzae 30063 MIC, μg/mL): 8 µg/mL (≈ 23.9 µM) |
| CC(=O)NC[C@H]1CN(c2ccc(N3CC4C(C3)N4C(C)=O)c(F)c2)C(=O)O1 (stereo partly drawn) [Example 50, N-({(5S)-3-[4-(6-acetyl-3,6-diazabicyclo[3.1.0]hex-3-yl)-3-fluorophenyl]-2-oxo-1,3-oxazolidin-5-yl]methyl)acetamide] |  | 8 µg/mL (≈ 21.3 µM) | 2 µg/mL (≈ 5.31 µM) | 64 µg/mL (≈ 170 µM) |  |
| COCC(=O)N1C2CN(c3ccc(N4C[C@H](CNC(C)=O)OC4=O)cc3F)CC21 (stereo partly drawn) [Example 51, N-({(5S)-3-[4-(6-methoxyacetyl-3,6-diazabicyclo[3.1.0]hex-3-yl)-3-fluorophenyl]-2-oxo-1,3-oxazolidin-5-yl}methyl)acetamide] |  | 8 µg/mL (≈ 19.7 µM) | 2 µg/mL (≈ 4.92 µM) | 32 µg/mL (≈ 78.7 µM) |  |
| CC(=O)NC[C@H]1CN(c2ccc(N3CC4C(C3)N4C(=O)COC(C)=O)c(F)c2)C(=O)O1 (stereo partly drawn) [Example 52, 2-[3-(4-(5S)-5-[(acetylamino)methyl]-2-oxo-1,3-oxazolidin-3-yl}2-fluorophenyl)-3,6-diazabicyclo[3.1.0]hex-6-yl]-2-oxoethyl acetate] |  | 1 µg/mL | 1 µg/mL | 32 µg/mL |  |
| CC(=O)NC[C@H]1CN(c2ccc(N3CCOCC3)c(F)c2)C(=O)O1 [linezolid, reference compound] | 16 µg/mL (≈ 47.4 µM) |  |  |  | MIC (S. pneumoniae UC9912; UC9912, read-out: MIC against S. pneumoniae (UC 9912)): 1 µg/mL (≈ 2.96 µM) |

Continued, in another order:

| MIC (H. influenzae 30063; [1]) | MIC (S. aureus UC9213; [2]) | MIC (S. pneumoniae UC9912; [3]) | MIC (H. influenzae 30063; [4]) | SMILES | also measured |
| --- | --- | --- | --- | --- | --- |
| > 64 µg/mL |  |  |  | CC(=O)NC[C@H]1CN(c2cc(F)c(N3C[C@@H]4[C@H](C3)[C@H]4C(=O)N(C)C)c(F)c2)C(=O)O1 [Example 3] |  |
| > 64 µg/mL |  |  |  | CCN(CC)C(=O)COC(=O)[C@H]1[C@@H]2CN(c3c(F)cc(N4C[C@H](CNC(=O)C(Cl)Cl)OC4=O)cc3F)C[C@@H]21 [Example 13, 2-(diethylamino)-2-oxoethyl exo-(1R,5S)-3-[4-((5S)-5-{[(dichloroacetyl)amino]methyl}-2-oxo-1,3-oxazolidin-3-yl)-2,6-difluorophenyl]-3-azabicyclo[3.1.0]hexane-6-carboxylate] |  |
| > 64 µg/mL |  |  |  | CC(=O)NC[C@H]1CN(c2cc(F)c(N3C[C@@H]4[C@H](C3)[C@H]4NC(=O)Nc3ccccc3)c(F)c2)C(=O)O1 [Example 28, N-{[(5S)-3-(4-{exo-(1R,5S)-6-[(anilinocarbonyl)amino]-3-azabicyclo[3.1.0]hex-3-yl}-3,5-difluorophenyl)-2-oxo-1,3-oxazolidin-5-yl]methyl}acetamide] |  |
|  | 1 µg/mL (≈ 2.83 µM) | 0.5 µg/mL (≈ 1.42 µM) | 8 µg/mL (≈ 22.6 µM) | CC(=O)NC[C@H]1CN(c2cc(F)c(N3CC4OC4C3)c(F)c2)C(=O)O1 (stereo partly shown) [Example 40] |  |
|  | 2 µg/mL (≈ 5.44 µM) | 0.5 µg/mL (≈ 1.36 µM) | 16 µg/mL (≈ 43.6 µM) | CCC(=O)NC[C@H]1CN(c2cc(F)c(N3CC4OC4C3)c(F)c2)C(=O)O1 (stereo partly drawn) [Example 41, N-({(5S)-3-[3,5-difluoro-4-(6-oxa-3-azabicyclo[3.1.0]hex-3-yl)phenyl]-2-oxo-1,3-oxazolidin-5-yl}methyl)propanamide] |  |
